Measured values from ChEMBL document CHEMBL1201862, “PubChem BioAssay data set” (2004).
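The compound was tested at five concentrations on cells cultured in 96-well plates, with a 48-hour exposure period. Abbreviation: GI50, concentration required for 50% inhibition of growth.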 Activity calls are given as the source filed them. Rule as the data show it: active = GI50 up to about 1.1 µM and inactive = higher.

Key:
Experiment in all cases: growth of human tumour cells (NCI), 48 h
786-0 = system: 786-0
A498 = system: A498
HCC 2998 = system: HCC 2998
HCT-15 = system: HCT-15
HT-29 = system: HT-29
IGROV-1 = system: IGROV-1
LOX IMVI = system: LOX IMVI
M14 = system: M14
MDA-MB-435 = system: MDA-MB-435
MOLT-4 = system: MOLT-4
Malme-3M = system: Malme-3M
OVCAR-3 = system: OVCAR-3
OVCAR-5 = system: OVCAR-5
OVCAR-8 = system: OVCAR-8
SF-268 = system: SF-268
SF-539 = system: SF-539
SN12C = system: SN12C
SNB-75 = system: SNB-75
T47D = system: T47D
TK-10 = system: TK-10

Measured: GI50

COC(=O)C1=C(C)NC(C)=C(C(=O)OC)C1c1ccc(NO)cc1
inactive: 786-0 15.5 µM | A498 29.8 µM | HCC 2998 18.7 µM | HT-29 7.01 µM | IGROV-1 16.3 µM | LOX IMVI 5.68 µM | M14 14.6 µM | MDA-MB-435 14.1 µM | MOLT-4 2.86 µM | Malme-3M 13 µM | OVCAR-3 12.9 µM | OVCAR-5 15.7 µM | OVCAR-8 10.2 µM | SF-268 19 µM | SF-539 15.8 µM | SN12C 18.7 µM | SNB-75 13.2 µM | T47D 7.23 µM | TK-10 16.5 µM
10.9 µM: HCT-15

CCN(CC)C(=S)N/N=C/c1cc(OC)ccc1O
1.36 µM: HCT-15
inactive: 786-0 2.75 µM | A498 2.02 µM | HCC 2998 3.86 µM | HT-29 7 µM | IGROV-1 6.37 µM | LOX IMVI 2.32 µM | M14 3.69 µM | MDA-MB-435 6.18 µM | MOLT-4 2.09 µM | Malme-3M 4.23 µM | OVCAR-3 2.1 µM | OVCAR-5 57.5 µM | OVCAR-8 4.51 µM | SF-268 1.87 µM | SF-539 6.97 µM | SN12C 5.79 µM | SNB-75 19.4 µM | T47D 7.28 µM | TK-10 4.3 µM

O=C1CC2SC(COCc3ccccc3)(CCN2Cc2ccccc2)C1 (stereo not given)
inactive: 786-0 > 100 µM | A498 > 100 µM | HCC 2998 > 100 µM | HT-29 31.6 µM | IGROV-1 > 100 µM | LOX IMVI 31.8 µM | M14 49.1 µM | MDA-MB-435 51.6 µM | MOLT-4 30.3 µM | Malme-3M 39.3 µM | OVCAR-3 > 100 µM | OVCAR-5 > 100 µM | OVCAR-8 > 100 µM | SF-268 > 100 µM | SF-539 > 100 µM | SN12C > 100 µM | SNB-75 > 100 µM | T47D 54.6 µM | TK-10 19.9 µM
40.6 µM: HCT-15

O=C(O)C1=CN(c2ccncc2)C(c2ccco2)=CC1c1ccccc1[N+](=O)[O-] (stereo not given)
2.05 µM: HCT-15
inactive: 786-0 2.16 µM | A498 13 µM | HCC 2998 1.82 µM | HT-29 2.13 µM | IGROV-1 2 µM | LOX IMVI 1.97 µM | M14 10.7 µM | MDA-MB-435 15.1 µM | MOLT-4 3.03 µM | Malme-3M 9.53 µM | OVCAR-3 7 µM | OVCAR-5 7.13 µM | OVCAR-8 17.3 µM | SF-268 5.71 µM | SF-539 3.11 µM | SN12C 13.6 µM | SNB-75 7.36 µM | T47D 10.6 µM | TK-10 6.17 µM

CN(C)c1n/c(=N/Cc2ccco2)ss1
inactive: 786-0 3.65 µM | A498 > 78 µM | HCC 2998 52.8 µM | HT-29 2.44 µM | IGROV-1 > 54.8 µM | LOX IMVI 18.5 µM | M14 21 µM | MDA-MB-435 20.5 µM | MOLT-4 5.73 µM | Malme-3M 18.7 µM | OVCAR-3 8.97 µM | OVCAR-5 > 40.5 µM | OVCAR-8 31.7 µM | SF-268 11.7 µM | SF-539 13 µM | SN12C 31.6 µM | SNB-75 20.5 µM | T47D 14.3 µM | TK-10 40 µM
21.3 µM: HCT-15
